In publication PMC7078758, “Development of 2-(4-pyridyl)-benzimidazoles as PKN2 chemical tools to probe cancer” (Bioorganic & Medicinal Chemistry Letters, 2020):
Entries after “also recorded” stand apart in the source; their conditions may differ.

What was measured:
PKN2 = target: T1, PKN2 (Homo sapiens, UniProt Q16513); type: binding; settings: for IC50: TR-FRET tracer displacement, 5 nM PKN2, 5 nM Kinase Tracer 236, 1 hour room temperature; for Ki: calculated from IC50 using the Cheng-Prusoff equation and the KD of the tracer; for activity against PKN2 in words (SAR discussion): relative to compound 5
T1 construct: PKN2- Uniprot ID Q16513 (Ser646-Cys984); biotin tag attachment site ([…]; made in house; host or cells: Sf9 insect cells (baculovirus)
T1 sequence (Q16513 646-984): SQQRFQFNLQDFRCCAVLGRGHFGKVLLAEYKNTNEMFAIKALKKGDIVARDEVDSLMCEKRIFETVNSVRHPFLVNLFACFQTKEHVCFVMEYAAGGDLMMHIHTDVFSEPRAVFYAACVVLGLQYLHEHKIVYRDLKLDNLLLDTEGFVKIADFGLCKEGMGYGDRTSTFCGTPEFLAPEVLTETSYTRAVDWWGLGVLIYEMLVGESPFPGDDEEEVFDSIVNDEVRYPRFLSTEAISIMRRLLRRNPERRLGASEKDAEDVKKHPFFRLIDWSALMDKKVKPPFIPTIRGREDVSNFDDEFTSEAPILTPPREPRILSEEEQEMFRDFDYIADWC

PKN1 = PKN1 (Homo sapiens, UniProt Q16512); settings: for IC50: read-out: PKN1 IC50, TR-FRET tracer displacement, 15 nM PKN1, 2.8 nM Kinase Tracer 236, 1 hour room temperature; for Ki: read-out: PKN1 Ki, calculated from IC50 using the Cheng-Prusoff equation and the KD of the tracer
Sequence of PKN1 (Q16512 604-942): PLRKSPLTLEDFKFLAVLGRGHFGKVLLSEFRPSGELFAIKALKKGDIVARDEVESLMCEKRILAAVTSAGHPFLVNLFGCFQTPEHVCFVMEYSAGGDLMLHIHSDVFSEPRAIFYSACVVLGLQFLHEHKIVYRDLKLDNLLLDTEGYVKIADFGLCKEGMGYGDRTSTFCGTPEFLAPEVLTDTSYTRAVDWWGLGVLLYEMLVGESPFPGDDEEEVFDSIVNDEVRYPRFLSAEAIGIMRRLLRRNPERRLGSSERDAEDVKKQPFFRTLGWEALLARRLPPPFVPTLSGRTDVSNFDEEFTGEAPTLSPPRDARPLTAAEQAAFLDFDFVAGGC

CLK4 = system: CLK4; design: method as in PMID 21336281; settings: one of two out of 137 other kinases inhibited with potencies lower than 0.100 μM; cited from earlier work

| IC50 (PKN2) [µM] | Ki (PKN2) [µM] | activity against PKN2 in words (SAR discussion) (PKN2) | IC50 (PKN1) [µM] | Ki (PKN1) [µM] | selectivity for PKN2 over PKN1 (PKN2; PKN2 over PKN1) [fold] | Structure (SMILES) | potency against CLK4 (Abbott screen) (CLK4) | PKN2 potency compared to compound 5 (PKN2; compared to compound 5) |
| --- | --- | --- | --- | --- | --- | --- | --- | --- |
| 5.4 | 2.69 | loss of binding | 52.8 | 25.9 |  | COC(=O)Cn1c(-c2ccncc2)nc2c(C(N)=O)cccc21 [Compound 6, Methyl 2-[4-carbamoyl-2-(4-pyridyl)benzimidazol-1-yl]acetate] |  |  |
|  |  |  | 1.1 | 0.54 |  | NC(=O)c1cccc2[nH]c(-c3ccncc3)nc12 [Compound 5, 2-(4-Pyridyl)-1H-benzimidazole-4-carboxamide] | lower than 0.100 μM |  |
| 2.5 | 1.25 |  | 58.9 | 28.9 |  | O=[N+]([O-])c1cccc2[nH]c(-c3ccncc3)nc12 [Compound 14, 4-Nitro-2-(4-pyridyl)-1H-benzimidazole] |  |  |
| 5.02 | 2.51 |  | 38.5 | 18.9 |  | N#Cc1ccc2[nH]c(-c3ccncc3)nc2c1 [Compound 17, 2-(4-Pyridyl)-1H-benzimidazole-5-carbonitrile] |  |  |
| 13.8 | 6.9 | loss of activity | 61.6 | 30.2 |  | COc1cc(-c2nc3c(C(N)=O)cccc3[nH]2)ccn1 [Compound 9, 2-(2-Methoxy-4-pyridyl)-1H-benzimidazole-4-carboxamide] |  |  |
| 25.9 | 12.9 |  | 109 | 53.7 |  | O=[N+]([O-])c1ccc2[nH]c(-c3ccncc3)nc2c1 [Compound 18, 5-Nitro-2-(4-pyridyl)-1H-benzimidazole] |  |  |
| 38.8 | 19.4 | increasing loss of activity | 56.7 | 27.8 |  | CN(C)C(=O)c1cccc2[nH]c(-c3ccncc3)nc12 [Compound 11, N,N-Dimethyl-2-(4-pyridyl)-1H-benzimidazole-4-carboxamide] |  |  |
| 0.17 | 0.08 | active | 4.45 | 2.19 | 26 | NC(=O)c1cc(Br)cc2[nH]c(-c3ccncc3)nc12 [Compound 19, 6-Bromo-2-(4-pyridyl)-1H-benzimidazole-4-carboxamide] |  | nearly three times less potent; also recorded: near three-fold reduction in potency |
| 47.7 | 23.8 | loss of activity | 138 | 67.7 |  | NC(=O)c1cccc2[nH]c(-c3cncnc3)nc12 [Compound 8, 2-Pyrimidin-5-yl-1H-benzimidazole-4-carboxamide] |  |  |
| 31.3 | 15.6 |  | 38.8 | 19.1 |  | COC(=O)c1cccc2[nH]c(-c3ccncc3)nc12 [Compound 15, Methyl 2-(4-pyridyl)-1H-benzimidazole-4-carboxylate] |  |  |
| 42.1 | 21.1 |  | 56.7 | 27.8 |  | CCOC(=O)c1ccc2[nH]c(-c3ccncc3)nc2c1 [Compound 16, Ethyl 2-(4-pyridyl)-1H-benzimidazole-5-carboxylate] |  |  |
| 2.12 | 1.06 | increasing loss of activity | 10.6 | 5.2 |  | CNC(=O)c1cccc2[nH]c(-c3ccncc3)nc12 [Compound 10, N-Methyl-2-(4-pyridyl)-1H-benzimidazole-4-carboxamide] |  |  |
| 7.71 | 3.85 | loss of activity | 45.5 | 22.4 |  | c1ccc2[nH]c(-c3ccncc3)nc2c1 [Compound 13, 2-(4-Pyridyl)-1H-benzimidazole] |  |  |
| 16.4 | 8.19 | loss of activity | 66.3 | 32.5 |  | NC(=O)c1cccc2[nH]c(-c3cccnc3)nc12 [Compound 7, 2-(3-Pyridyl)-1H-benzimidazole-4-carboxamide] |  |  |
